# According to patent US20150136638A1, “METHOD FOR PREPARING A SYRUPY PRODUCT COMPRISING VITAMINS” (LaboratoiresUrgo, priority 2012, published 2015):
# Experiment: Assay of the vitamins contained in a randomly taken bottle of the syrupy product of Example 2 (yield = actual / theoretical amount x 100)
# Format: physicochemical
# Conditions: syrupy product of Example 2, after preparation and packaging under inert atmosphere; actual amount of vitamin in the bottle divided by theoretical amount x 100
# Method: The process can be broken down into the following steps: • the two preparation tanks (PT1 and PT2) and the pipe connecting them are inerted with an overpressure of inert gas at 0.4 bar for 300 sec.; • the sugar syrup is introduced into the main preparation tank (PT1); • the sugar syrup is left to stir with bubbling of nitrogen with a pressure of 0.4 bar and a flow rate of 4 Nm^3/h for 4 hours; • the sugar syrup is heated at 50° C. by means of the double jackets surrounding tank PT1; • the pH of the sugar syrup is adjusted to 9.5 by introducing the sodium hydroxide and the ascorbic acid; • the secondary preparation tank (PT2) is preheated at 50° C. by means of the double jackets surrounding tank PT2; • the Montanox 80 and the following fat-soluble vitamins: vitamin A, vitamin D3, vitamin E, are introduced into the secondary preparation tank (PT2); • the mixture in tank PT2 is left to stir at 50° C. and with bubbling of nitrogen for 60 minutes; • the content of tank PT2 is transferred to tank PT1 via the pipe connecting them; • tank PT2 is rinsed several times with water, at 50° C., purified and deoxygenated beforehand, and the rinsing water is then transferred to tank PT1 via the pipe connecting PT2 to PT1; • the content of tank PT1 is left to stir at 50° C. and with bubbling of nitrogen for 60 minutes; • the temperature of the content of tank PT1 is reduced to 35° C.; • the following water-soluble vitamins: vitamin B1, vitamin B2, vitamin B3, vitamin B5, vitamin B6, vitamin B8, vitamin B12 and vitamin C, and also the plum flavoring, are introduced into tank PT1; • the reservoirs which contained the vitamins are rinsed with purified water and the rinsing water is added to tank PT1; • the content of tank PT1 is left to stir at 35° C. and with bubbling of nitrogen for 120 minutes; • the dehydrated glucose is introduced into tank PT1 via the powder-transferring system; • purified and deoxygenated water is introduced into tank PT1; • the content of tank PT1 is left to stir at 35° C. and with bubbling of nitrogen for 60 minutes; • the piping between tank PT1 and the storage tank is inerted, and the storage tank is inerted with a nitrogen pressure at 0.4 bar and a flow rate of 1 Nm^3/h for 300 seconds; • the content of tank PT1 is transferred to the storage tank passing through the mixer into which nitrogen is injected, in contraflow to the passage of the liquid, with a pressure of 0.4 bar and a flow rate of 8 Nm^3/h; • the syrupy product which gradually accumulates in the storage tank is kept stirring at 150 rpm and with bubbling of nitrogen with a pressure of 0.4 bar and a flow rate of 2 Nm^3/h; • the pipes between the storage tank and the bottle-filling machine, and also the packaging hopper, are inerted with nitrogen at a pressure of 0.3 bar for 600 seconds; • the syrupy product is transferred to the packaging hopper and the content is kept at a nitrogen pressure of 0.2 bar; • the syrupy product is gradually transferred to the bottle-filling machine; • the bottles are inerted with nitrogen at 1 bar for 100 milliseconds, then they are filled with a volume of syrupy product metered by a positive-displacement pump and they are kept under a nitrogen atmosphere until they are closed by means of a crimped valve.
# One of the bottles produced is taken randomly and the vitamins contained in this bottle are assayed. The yields are calculated by dividing the actual amount of vitamins that is contained in the bottle by the theoretical amount of vitamins that should be in the bottle, and by multiplying the result by 100.
row,Compound,YIELD (individual vitamin ratio) [%]
1,"CC1=C(/C=C/C(C)=C/C=C/C(C)=C/CO)C(C)(C)CCC1 [Vitamin A, retinol]",100
2,Vitamin E,100

# Continued, values first:
row,YIELD (individual vitamin ratio) [%],Compound
1,98.6,"Cc1cc2nc3c(=O)[nH]c(=O)nc-3n(C[C@H](O)[C@H](O)[C@H](O)CO)c2cc1C [Vitamin B2, riboflavin]"
2,98.8,"O=C(O)c1cccnc1 [Vitamin B3, nicotinic acid]"
3,100,"CC(C)(CO)[C@@H](O)C(=O)NCCC(=O)O [Vitamin B5, pantothenic acid]"
4,98.6,"Cc1ncc(CO)c(CO)c1O [Vitamin B6, pyridoxine]"
